# Test results: patent US11175289B2, “Application of TRPM8 protein, related peptide fragment and their antibodies” (priority 2016, dated 2021)
# Ends that are not written are not given here. * marks the point of attachment. Biotin = O=C1N[C@H]2[C@H](CS[C@H]2CCCCC(=O)*)N1
# Test system: TRPM8 protein and TRPM8 related peptide fragments
# Assay: Antibody identification of monoclonal antibodies
# Assay type: binding, human
# Conditions: monoclonal antibody against the named antigen
# Text: Freund's adjuvant is adopted for respectively immunizing the mice.
# 2. Detection of TRPM8 antibody: utilizing a radioimmunoassay (RIA) method.
Substance,Affinity,Specificity
VEVED ALTSS AVKEK LVRFC (VEVEDALTSSAVKEKLVRFC; HUMAN) [T-11],10^12 L/mol,High
EMDIELHDVSPITRH (HUMAN) [T-18],10^12 L/mol,High
NRRND TLDST RTLYSS (NRRNDTLDSTRTLYSS; HUMAN) [T-10],10^12 L/mol,High
FTGNESKPLCVELDEHNLPRFPE (HUMAN) [T-15],10^12 L/mol,High
KEKNMESSVCCFKNEDNET (HUMAN) [T-13],10^12 L/mol,High
CKEKN MESSV CCFKN EDNET (CKEKNMESSVCCFKNEDNET; HUMAN) [T-7],10^12 L/mol,High
SEEMRHRFRQLDTKLNDLKG (HUMAN) [T-14],10^12 L/mol,High
VEVEDALTSSAVKEKLVRF (HUMAN) [T-17],10^12 L/mol,High
Biotin-LTVIKMEEAGDEIVSNA [T-6],10^12 L/mol,High
CFTGNE SKPLCV ELDEH NLPRFPE (CFTGNESKPLCVELDEHNLPRFPE; HUMAN) [T-9],10^12 L/mol,High
CSEEM RHRFR QLDTK LNDLKG (CSEEMRHRFRQLDTKLNDLKG; HUMAN) [T-8],10^12 L/mol,High
Biotin-DGTTYDFAHCTFTGNESKPL [T-3],10^12 L/mol,High
Biotin-DEVRQWYVNGVNYFTD [T-5],10^12 L/mol,High
CEMDI ELHDV SPITRH (CEMDIELHDVSPITRH; HUMAN) [T-12],10^12 L/mol,High
NRRNDTLDSTRTLYSSASRSTDLSYS (HUMAN) [T-16],10^12 L/mol,High
Biotin-FKNEDNETLAWEGVMKENYL [T-2],10^12 L/mol,High
Biotin-VSRNLGPKIIMLQ [T-4],10^12 L/mol,High
